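Cultured in 96-well plates, cells were exposed to test compound for 48 hours across five concentrations. GI50 = concentration required for 50% inhibition of growth. TGI denotes the concentration required for complete inhibition of growth.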
Assays:
Test in all cases: NCI tumour cell line growth inhibition, 48 h
EKVX NSCLC = tested on: EKVX NSCLC
TK-10 renal = tested on: TK-10 renal
A498 renal = tested on: A498 renal
SNB-75 CNS = tested on: SNB-75 CNS
NCI-H460 lung = tested on: NCI-H460 lung
CCRF-CEM leukemia = tested on: CCRF-CEM leukemia
KM12 colon = tested on: KM12 colon
COLO 205 colon = tested on: COLO 205 colon
LOX IMVI melanoma = tested on: LOX IMVI melanoma
K-562 leukemia = tested on: K-562 leukemia

SMILES	GI50 (EKVX NSCLC) [µM]	TGI (EKVX NSCLC) [µM]	GI50 (TK-10 renal) [µM]	TGI (TK-10 renal) [µM]	GI50 (A498 renal) [µM]	TGI (A498 renal) [µM]	GI50 (SNB-75 CNS) [µM]	TGI (SNB-75 CNS) [µM]	GI50 (NCI-H460 lung) [µM]	TGI (NCI-H460 lung) [µM]	GI50 (CCRF-CEM leukemia) [µM]	TGI (CCRF-CEM leukemia) [µM]	GI50 (KM12 colon) [µM]	TGI (KM12 colon) [µM]	GI50 (COLO 205 colon) [µM]	TGI (COLO 205 colon) [µM]	GI50 (LOX IMVI melanoma) [µM]	TGI (LOX IMVI melanoma) [µM]	GI50 (K-562 leukemia) [µM]	TGI (K-562 leukemia) [µM]
C=CCSc1n[nH]c(-c2cccs2)n1	> 100	> 100	> 100	> 100	> 100	> 100	> 100	> 100	> 100	> 100	> 100	> 100	> 100	> 100	> 100	> 100	> 100	> 100	> 100	> 100
O=C(C#Cc1c[nH]c(=O)[nH]c1=O)c1ccccc1	–	24.9	–	26.7	–	29.1	–	33.1	–	28.6	–	7.8	–	29	–	19.6	–	16.3	–	14.4
Cc1ccc(C(=O)/C=C/c2ccccc2Cl)cc1	–	33.6	–	61.7	–	72.5	–	44.8	–	29.1	–	42.6	–	30.2	–	47.2	–	–	–	46
N#Cc1c(NC(=O)CCC(=O)O)ccc2ccccc12	–	> 100	–	> 100	–	> 100	–	> 100	–	> 100	–	–	–	> 100	–	> 100	–	–	–	> 100
CCCCCN(CCCCC)C(=O)[C@@H](CCC(=O)OCc1ccccc1)NC(=O)c1cc2ccccc2[nH]1	–	> 100	–	–	–	> 100	–	> 100	–	> 100	–	> 100	–	> 100	–	> 100	–	> 100	–	> 100
COc1ccc(/C=N/NC(=O)O)cc1	–	> 100	–	> 100	–	> 100	–	> 100	–	> 100	–	–	–	> 100	–	> 100	–	> 100	–	> 100
Cc1cccc(NC(=O)CC2C(=O)Nc3ccccc3S2(=O)=O)c1C (configuration not stated)	–	> 100	–	79.5	–	> 100	–	41.6	–	82.4	–	–	–	> 100	–	> 100	–	–	–	> 100
C=C(C)C1CC[C@]2(C(=O)O)CCC3(C)[C@H](CCC4[C@@]5(C)CC[C@H](OC6OC(CO)C(O)C6OC6OC(C)C(O)C(O)C6O)[C@@](C)(CO)C5CC[C@]43C)C12 (some centres not stated)	–	> 100	–	> 100	–	–	–	> 100	–	> 100	–	> 100	–	> 100	–	> 100	–	> 100	–	> 100
NC(C(=O)O)C(N)C(=O)O (configuration not stated)	–	> 100	–	> 100	–	> 100	–	–	–	> 100	–	–	–	> 100	–	> 100	–	> 100	–	> 100
CSc1s[s+]c(SC)c1[O-]	–	> 100	–	> 100	–	> 100	–	> 100	–	> 100	–	> 100	–	> 100	–	68.8	–	–	–	25.2
CN(C)CCCC1(c2ccc(F)cc2)OCc2cc(-c3ccc4cc[nH]c4c3)ccc21 (configuration not stated)	2.04	5	2.03	4.09	–	–	1.35	3.54	1.79	3.49	2.65	7.12	1.85	3.42	2.11	4.68	1.78	3.27	1.93	4.08
CC1=CCC2(C#N)CCC1C2=O (configuration not stated)	–	> 100	–	> 100	–	> 100	–	–	–	> 100	–	> 100	–	> 100	–	> 100	–	> 100	–	> 100
CCOC(=O)c1cc(C(=O)c2cc(OC)cc(OC)c2)n2ncccc12	4.74	> 100	9.78	> 100	–	–	0.399	> 100	2.58	> 100	2.51	> 100	–	–	0.797	75.5	0.804	> 100	0.539	> 100
COC(=O)C1CCc2c(OC)ccc(OC)c2C1=O (configuration not stated)	–	> 100	–	> 100	–	> 100	–	–	–	> 100	–	> 100	–	> 100	–	> 100	–	> 100	–	> 100
O=C(NCCNCCO)c1ccc2oc3cc4ccccc4c(=O)n3c2c1	5.63	19.2	9.93	20.3	–	–	15.2	47.5	7.08	15.4	–	–	10.5	40.4	12	> 50	6.72	14	14.9	> 50
NC(=O)c1c(OCc2c(F)cc(Br)cc2F)nsc1NC(=O)NCCCCN1CCCC1	> 10	> 10	2.06	7.94	0.086	0.91	–	–	2.6	> 10	2.77	8.17	2.73	> 10	1.9	4.05	1.16	2.5	1.44	5.91
COc1ccc(OC)c(-c2nc3sccn3c2/C=C2/C(=O)Nc3ccccc32)c1	2.51	27.7	1.29	20.2	–	–	2.95	> 100	0.511	> 37.6	0.273	5.37	0.119	2.06	0.595	–	2.82	35.1	0.49	> 100
Clc1ccc2c(NCCCN3CCN(c4nc(-n5ccnc5)nc5ccccc45)CC3)ccnc2c1	> 28.4	> 100	1.72	3.39	2.55	> 26.8	1.58	3.25	–	–	2.87	> 100	–	–	> 100	> 100	1.84	3.69	2.1	6.13
COCCN1C2=CCCCC2=Nc2c(N)nc(N)nc21	–	–	–	> 100	–	> 100	–	> 100	–	> 100	–	> 100	–	> 100	–	> 100	–	> 100	–	> 100

Source: PubChem BioAssay (NCI)
